What was measured:
[1] = tested on: liver poisoning with carbon tetrachloride; test: Anti-hepatotoxic activity of silybin and of 1:1 silybin-phosphatidylcholine complex in the rat, after poisoning with carbon tetrachloride; format: in vivo; conditions: oral; for reduction in GOT and GPT (in words): carbon tetrachloride, equimolecular doses; for GOT: poisoned controls 339.40 ± 59.07; for GOT, % change (in brackets) / GPT, % change (in brackets): versus poisoned controls
[2] = in vivo, po
Text: phosphatidylcholine complex in the rat, after oral administration.

[3] = Solubility in chloroform, ethyl ether or benzene
[4] = conclusion from literature reports; cited from earlier work
[5] = Pharmacokinetic comparison between equimolar doses of silybin and of 1:1 silybin-phosphatidylcholine complex in the rat, after oral administration
[6] = Pharmacokinetic comparison between equimolar doses of silybin and of 1:1 silybin:phosphatidylcholine complex in man, oral administration; conditions: 0.00 = below sensitivity of the method (35 ng/ml)
[7] = silybin 25 mg/kg, complex 65.8 mg/kg (equivalent to 25 mg silybin), poisoned controls 145.40 ± 31.43
[8] = silybin 25 mg/kg, complex 65.8 mg/kg (equivalent to 25 mg silybin)
[9] = silybin 25 mg/kg, complex 65.8 mg/kg
[10] = silybin 250 mg/kg (P < .05), complex 658 mg/kg (equivalent to 250 mg silybin; P < .01)
[11] = silybin 250 mg/kg, complex 658 mg/kg (equivalent to 250 mg silybin), poisoned controls 145.40 ± 31.43, °° P < .01
[12] = silybin 250 mg/kg, complex 658 mg/kg

| Molecule | reduction in GOT and GPT (in words) [1] | GPT [1, 7] [U/L] | GOT [1, 8] [U/L] | GOT, % change (in brackets) [1, 9] [%] | GPT, % change (in brackets) [1, 9] [%] | GOT [1, 10] [U/L] | GPT [1, 11] [U/L] | GOT, % change (in brackets) [1, 12] [%] | GPT, % change (in brackets) [1, 12] [%] | other results |
| --- | --- | --- | --- | --- | --- | --- | --- | --- | --- | --- |
| 1:1 Silybin/soy phosphatidylcholine complex [1:1 silybin-phosphatidylcholine complex] | significant reduction | 65.90 | 181.80 | -46.4 | -54.7 | 148.10 | 46.90 | -56.4 | -67.8 | absorption in the rat (in words) [2]: markedly in favour of the complexed form |
| COc1cc(C2Oc3cc([C@H]4Oc5cc(O)cc(O)c5C(=O)[C@@H]4O)ccc3OC2CO)ccc1O (stereo partly drawn) [Silybin, silybin] | only a slight reduction | 94.30 | 252.60 | -25.6 | -35.2 | 200.00 | 94.90 | -41.1 | -34.8 | solubility in chloroform, ethyl ether or benzene [3]: insoluble; oral bioavailability (in words) [4]: does not have really high or adequate bioavailability; concentration at 0.25 h ([5]; in vivo, po, 200 mg/kg): 70 ng/mL; concentration at 0.5 h ([5]; in vivo, po, 200 mg/kg): 60 ng/mL; concentration at 1 h ([5]; in vivo, po, 200 mg/kg): 110 ng/mL; concentration at 2 h ([5]; in vivo, po, 200 mg/kg): 50 ng/mL; concentration at 3 h ([5]; in vivo, po, 200 mg/kg): 50 ng/mL; concentration at sampling time 4.00 h ([5]; oral, complex 520 mg/kg (equivalent to 200 mg/kg silybin), silybin 200 mg/kg, 4.00 h, 0.00 = nondeterminable, below limit of 0.05 mcg/ml): 0 ng/mL; concentration at sampling time 6.00 h ([5]; oral, complex 520 mg/kg (equivalent to 200 mg/kg silybin), silybin 200 mg/kg, 6.00 h, 0.00 = nondeterminable, below limit of 0.05 mcg/ml): 0 ng/mL; concentration at sampling time 0.25 h ([6]; complex 700, silybin 270, 0.25 h): 0.00 ng/mL; concentration at sampling time 0.50 h ([6]; complex 700, silybin 270, 0.50 h): 0.00 ng/mL; concentration at sampling time 1.00 h ([6]; complex 700, silybin 270, 1.00 h): 0.00 ng/mL; concentration at sampling time 2.00 h ([6]; complex 700, silybin 270, 2.00 h): 0.00 ng/mL; concentration at sampling time 3.00 h ([6]; complex 700, silybin 270, 3.00 h): 0.00 ng/mL; concentration at sampling time 4.00 h ([6]; complex 700, silybin 270, 4.00 h): 0.00 ng/mL; concentration at sampling time 6.00 h ([6]; complex 700, silybin 270, 6.00 h): 0.00 ng/mL; concentration at sampling time 8.00 h ([6]; complex 700, silybin 270, 8.00 h): 0.00 ng/mL |
